Reference: patent publication US20160333419A1, “GENE SIGNATURES ASSOCIATED WITH SENSITIVITY TO MDM2 INHIBITORS” (DAIICHI SANKYO COMPANY, LIMITED, priority 2014, published 2016)

Columns and labels:
Test in all cases: OncoPanel cytotoxicity assay
Assay type in all cases: cell-based
KPL-1 = details: Homo sapiens, 72 hour incubation
Procedure: (§1) Cells were grown in RPMI 1640, 10% FBS, 2 mM L-alanyl-L-Glutamine, 1 mM Na Pyruvate, or a special medium in a humidified atmosphere of 5% CO2 at 37° C. Cells were seeded into 384-well plates and incubated in a humidified atmosphere of 5% CO2 at 37° C. Test compounds were added 24 hours post cell seeding. At the same time, a time zero, untreated cell plate was generated as a control. After a 72 hour incubation period, cells were fixed and stained with nuclear dye to allow visualization of nuclei.
(§2) Compounds were serially diluted 3.16-fold and assayed over 10 concentrations of inhibitor in a final assay concentration of 0.1% DMSO from the highest test concentration specified in the sample information chapter. Automated fluorescence microscopy was carried out using a GE Healthcare InCell Analyzer 1000, and images were collected with a 4× objective. Twelve bit tiff images were acquired using the InCell Analyzer 1000 3.2 and analyzed with Developer Toolbox 1.6 software.
(§3) Cell proliferation was measured by the signal intensity of the incorporated nuclear dye. The cell proliferation assay output is referred to as the relative cell count. To determine the cell proliferation end point, the cell proliferation data output is transformed to percent of control (POC) using the following formula: […]
(§4) Relative cell count IC50 (IC50) is the test compound's concentration that produces 50% of the cell proliferation inhibitory response or 50% cytotoxicity level. IC50 values were calculated using nonlinear regression to fit data to a sigmoidal 4 point, 4 parameter One-Site dose response model, where: y (fit)=A+[(B−A)/(1+((C/x)̂D))]. Curve-fitting, IC50 calculations and report generation were performed using a custom data reduction engine MathIQ based software (AIM). […] In these cases, the IC50 values were expressed as 40 μM and 10 μM, respectively (Table 2).

SR = details: Homo sapiens, 72 hour incubation
Procedure: as §1, §2, §3, §4

UM-UC-3 = details: Homo sapiens, UMUC3, 72 hour incubation
Procedure: as §1, §2, §3, §4

SW962 = details: Homo sapiens, SW 962, 72 hour incubation
Procedure: as §1, §2, §3, §4

DB = details: Homo sapiens, 72 hour incubation
Procedure: as §1, §2, §3, §4

SW1463 = details: Homo sapiens, 72 hour incubation
Procedure: as §1, §2, §3, §4

HCT-116 = details: Homo sapiens, 72 hour incubation
Procedure: as §1, §2, §3, §4

G-402 = details: Homo sapiens, 72 hour incubation
Procedure: as §1, §2, §3, §4

MEG01 = details: Homo sapiens, MEG-01, 72 hour incubation
Procedure: as §1, §2, §3, §4

SK-N-DZ = details: Homo sapiens, 72 hour incubation
Procedure: as §1, §2, §3, §4

BE(2)C = details: Homo sapiens, 72 hour incubation
Procedure: as §1, §2, §3, §4

SJSA1 = details: Homo sapiens, SJSA-1, 72 hour incubation
Procedure: as §1, §2, §3, §4

A-673 = details: Homo sapiens, A673, 72 hour incubation
Procedure: as §1, §2, §3, §4

SW403 = details: Homo sapiens, SW-403, 72 hour incubation
Procedure: as §1, §2, §3, §4

SNU-1 = details: Homo sapiens, SNU1, 72 hour incubation
Procedure: as §1, §2, §3, §4

BT20 = details: Homo sapiens, BT-20, 72 hour incubation
Procedure: as §1, §2, §3, §4

MCF7 = details: Homo sapiens, 72 hour incubation
Procedure: as §1, §2, §3, §4

U2OS = details: Homo sapiens, 72 hour incubation
Procedure: as §1, §2, §3, §4

SW1783 = details: Homo sapiens, 72 hour incubation
Procedure: as §1, §2, §3, §4

NCI-H292 = details: Homo sapiens, 72 hour incubation
Procedure: as §1, §2, §3, §4

A431 = details: Homo sapiens, A-431, 72 hour incubation
Procedure: as §1, §2, §3, §4

SW900 = details: Homo sapiens, 72 hour incubation
Procedure: as §1, §2, §3, §4

DBTRG-05MG = details: Homo sapiens, 72 hour incubation
Procedure: as §1, §2, §3, §4

Capan-2 = details: Homo sapiens, 72 hour incubation
Procedure: as §1, §2, §3, §4

AGS = details: Homo sapiens, 72 hour incubation
Procedure: as §1, §2, §3, §4

DMS53 = details: Homo sapiens, DMS-53, 72 hour incubation
Procedure: as §1, §2, §3, §4

PANC-1 = details: Homo sapiens, 72 hour incubation
Procedure: as §1, §2, §3, §4

639-V = details: Homo sapiens, 72 hour incubation
Procedure: as §1, §2, §3, §4

Mia PaCa-2 = details: Homo sapiens, 72 hour incubation
Procedure: as §1, §2, §3, §4

SW1353 = details: Homo sapiens, 72 hour incubation
Procedure: as §1, §2, §3, §4

NCI-H596 = details: Homo sapiens, 72 hour incubation
Procedure: as §1, §2, §3, §4

U-87 MG = details: Homo sapiens, 72 hour incubation
Procedure: as §1, §2, §3, §4

Colo 320DM = details: Homo sapiens, 72 hour incubation
Procedure: as §1, §2, §3, §4

MOLT-16 = details: Homo sapiens, 72 hour incubation
Procedure: as §1, §2, §3, §4

SW480 = details: Homo sapiens, 72 hour incubation
Procedure: as §1, §2, §3, §4

G-401 = details: Homo sapiens, 72 hour incubation
Procedure: as §1, §2, §3, §4

BeWo = details: Homo sapiens, 72 hour incubation
Procedure: as §1, §2, §3, §4

RD = details: Homo sapiens, 72 hour incubation
Procedure: as §1, §2, §3, §4

Structure (SMILES)	IC50 (KPL-1)	IC50 (SR)	IC50 (UM-UC-3)	IC50 (SW962)	IC50 (DB)	IC50 (SW1463)	IC50 (HCT-116)	IC50 (G-402)	IC50 (MEG01)	IC50 (SK-N-DZ)	IC50 (BE(2)C)	IC50 (SJSA1)	IC50 (A-673)	IC50 (SW403)	IC50 (SNU-1)	IC50 (BT20)	IC50 (MCF7)	IC50 (U2OS)	IC50 (SW1783)	IC50 (NCI-H292)	other results
CC[C@@H]1CNC2(CC2)CN1C(=O)[C@@H]1C[C@@H](F)CN1C(=O)C1=C(C(C)C)N2C(=N[C@@](C)(c3ccc(Cl)nc3)[C@H]2c2ccc(Cl)c(F)c2)S1 [Compound A, [(5R,6S)-5-(4-Chloro-3-fluorophenyl)-6-(6-chloropyridin-3-yl)-6-methyl-3-(propan-2-yl)-5,6-dihydroimidazo[2,1-b][1,3]thiazol-2-yl][(2S,4R)-2-{[(6R)-6-ethyl-4,7-diazaspiro[2.5]oct-7-yl]carbonyl}-4-fluoropyrrolidin-1-yl]methanone]	0.455 µM	0.257 µM	> 40 µM	> 40 µM	> 40 µM	> 40 µM	0.653 µM	0.568 µM	> 40 µM	> 40 µM	35.3 µM	0.214 µM	> 40 µM	> 40 µM	0.412 µM	> 40 µM	0.661 µM	1.24 µM	> 40 µM	0.479 µM	IC50 (A431): > 40 µM; IC50 (SW900): > 40 µM; IC50 (DBTRG-05MG): 0.132 µM; IC50 (Capan-2): > 40 µM; IC50 (AGS): 0.139 µM; IC50 (DMS53): 38.4 µM; IC50 (PANC-1): > 40 µM; IC50 (639-V): > 40 µM; IC50 (Mia PaCa-2): > 40 µM; IC50 (SW1353): 1.68 µM; IC50 (NCI-H596): > 40 µM; IC50 (U-87 MG): 0.261 µM; IC50 (Colo 320DM): > 40 µM; IC50 (MOLT-16): 0.236 µM; IC50 (SW480): > 40 µM; IC50 (G-401): 0.242 µM; IC50 (BeWo): 1.49 µM; IC50 (RD): > 40 µM
CC1(C)CCC2(CC1)N[C@@H](C(=O)N[C@@H]1CC[C@@H](C(N)=O)OC1)[C@H](c1ccnc(Cl)c1F)[C@]21C(=O)Nc2cc(Cl)ccc21 [Compound B, (3′R,4′S,5′R)—N-[(3R,6S)-6-carbamoyltetrahydro-2H-pyran-3-yl]-6″-chloro-4′-(2-chloro-3-fluoropyridin-4-yl)-4,4-dimethyl-2″-oxo-1″,2″-dihydrodispiro[cyclohexane-1,2′-pyrrolidine-3′,3″-indole]-5′-carboxamide]	0.031 µM	0.0262 µM	> 10 µM	> 10 µM	5.98 µM	> 10 µM	0.0505 µM	0.0261 µM	9.7 µM	> 10 µM	9.03 µM	0.0261 µM	9.21 µM	> 10 µM	0.135 µM	> 10 µM	0.0833 µM	0.248 µM	> 10 µM	0.0347 µM	IC50 (A431): > 10 µM; IC50 (SW900): > 10 µM; IC50 (DBTRG-05MG): 0.0846 µM; IC50 (Capan-2): > 10 µM; IC50 (AGS): 0.0116 µM; IC50 (DMS53): > 10 µM; IC50 (PANC-1): 6.73 µM; IC50 (639-V): 6.39 µM; IC50 (Mia PaCa-2): 7.22 µM; IC50 (SW1353): 0.0853 µM; IC50 (NCI-H596): > 10 µM; IC50 (U-87 MG): 0.0376 µM; IC50 (Colo 320DM): > 10 µM; IC50 (MOLT-16): 0.0598 µM; IC50 (SW480): > 10 µM; IC50 (G-401): 0.0354 µM; IC50 (BeWo): 0.317 µM; IC50 (RD): 7.2 µM
